From PMC8294803, “A Roadmap to the Structure-Related Metabolism Pathways of Per- and Polyfluoroalkyl Substances in the Early Life Stages of Zebrafish (Danio rerio)” (Environmental Health Perspectives, 2021)
Read-outs that look alike come from different tables or passages of the source.

Test system: zebrafish embryos
[1] = 5μM through 120 hpf, malformation rate

`FC(F)(F)COC(OCC(F)(F)F)OCC(F)(F)F` [compound 1, tris(Trifluoroethoxy)methane] was tested, and the “pericardial oedemata, Mean” value [1] was 2.22%, the “spinal curvature, Mean” value [1] was 2.22% and the “tail dysplasia, Mean” value [1] was 2.22%. The “Mortality (%)” value (5 µM, exposure through 120 hpf) was 0%.

`FCOC(C(F)(F)F)C(F)(F)F` [compound 3, Sevoflurane, reference compound] was tested, and the “pericardial oedemata, Mean” value [1] was 0.00%, the “spinal curvature, Mean” value [1] was 2.22% and the “tail dysplasia, Mean” value [1] was 0.00%. The “Mortality (%)” value (5 µM, exposure through 120 hpf) was 1.1%.

With `O=S(=O)(F)C(F)(F)C(F)(F)C(F)(F)C(F)(F)F` [compound 8, Perfluorobutanesulfonyl fluoride] the “pericardial oedemata, Mean” value [1] was 0.00%, the “spinal curvature, Mean” value [1] was 1.11% and the “tail dysplasia, Mean” value [1] was 3.33%. The “Mortality (%)” value (5 µM, exposure through 120 hpf) was 2.2%.

`CCN(CCO)S(=O)(=O)C(F)(F)C(F)(F)C(F)(F)C(F)(F)C(F)(F)C(F)(F)C(F)(F)C(F)(F)F` [compound 9, N-Ethyl-N-(2-hydroxyethyl)perfluorooctanesulfonamide] was tested, and the “pericardial oedemata, Mean” value [1] was 1.11%, the “spinal curvature, Mean” value [1] was 0.00% and the “tail dysplasia, Mean” value [1] was 0.00%. The “Mortality (%)” value (5 µM, exposure through 120 hpf) was 1.1%.

For `OCC(F)(F)C(F)(F)C(F)(F)F` [compound 11, Heptafluorobutanol], the “pericardial oedemata, Mean” value [1] was 4.44%, the “spinal curvature, Mean” value [1] was 2.22% and the “tail dysplasia, Mean” value [1] was 0.00%. For the same compound, the “Mortality (%)” value (5 µM, exposure through 120 hpf) was 1.1%.

With `C=CCOC(F)(C(F)(F)F)C(F)(F)F` [compound 18, Allyl perfluoroisopropyl ether] the “pericardial oedemata, Mean” value [1] was 0.00%, the “spinal curvature, Mean” value [1] was 0.00% and the “tail dysplasia, Mean” value [1] was 0.00%. The “Mortality (%)” value (5 µM, exposure through 120 hpf) was 3.3%.

With `CC=CC(F)(F)C(F)(F)C(F)(F)F` [compound 22, 1-Propenylperfluoropropane] the “pericardial oedemata, Mean” value [1] was 0.00%, the “spinal curvature, Mean” value [1] was 0.00% and the “tail dysplasia, Mean” value [1] was 0.00%. For the same compound, the “Mortality (%)” value (5 µM, exposure through 120 hpf) was 3.3%.

In the case of `C=CC(F)(C(F)(F)F)C(F)(F)C(F)(F)F` (stereo not shown) [compound 25, 2-Vinylperfluorobutane], the “pericardial oedemata, Mean” value [1] is reported as 0.00%, the “spinal curvature, Mean” value [1] is reported as 0.00% and the “tail dysplasia, Mean” value [1] is reported as 0.00%. The “Mortality (%)” value (5 µM, exposure through 120 hpf) was 1.1%.

In the case of `FC(F)(F)COCC(F)(F)F` [compound 27, Flurothyl, reference compound], the “pericardial oedemata, Mean” value [1] is reported as 2.22%, the “spinal curvature, Mean” value [1] is reported as 0.00% and the “tail dysplasia, Mean” value [1] is reported as 0.00%. For the same compound, the “Mortality (%)” value (5 µM, exposure through 120 hpf) was 1.1%.

With `CC(F)(F)CC(F)(F)F` [compound 29, 1,1,1,3,3-Pentafluorobutane] the “pericardial oedemata, Mean” value [1] was 0.00%, the “spinal curvature, Mean” value [1] was 0.00% and the “tail dysplasia, Mean” value [1] was 0.00%. The “Mortality (%)” value (5 µM, exposure through 120 hpf) was 3.3%.

In the case of `NC(O)(C(F)(F)F)C(F)(F)F` [compound 33, 2-Aminohexafluoropropan-2-ol], the “pericardial oedemata, Mean” value [1] is reported as 0.00%, the “spinal curvature, Mean” value [1] is reported as 0.00% and the “tail dysplasia, Mean” value [1] is reported as 0.00%. The “Mortality (%)” value (5 µM, exposure through 120 hpf) was 7.8%.

`O=C(O)C(F)(OC(F)(F)C(F)(F)C(F)(F)F)C(F)(F)F` (stereo not shown) [compound 37, Perfluoro-2-methyl-3-oxahexanoic acid] was tested, and the “pericardial oedemata, Mean” value [1] was 2.22%, the “spinal curvature, Mean” value [1] was 0.00% and the “tail dysplasia, Mean” value [1] was 1.11%. The “Mortality (%)” value (5 µM, exposure through 120 hpf) was 1.1%.

With `OCCC(F)(F)C(F)(F)C(F)(F)C(F)(F)F` [compound 41, 4:2 Fluorotelomer alcohol] the “pericardial oedemata, Mean” value [1] was 3.33%, the “spinal curvature, Mean” value [1] was 0.00% and the “tail dysplasia, Mean” value [1] was 0.00%. For the same compound, the “Mortality (%)” value (5 µM, exposure through 120 hpf) was 0%.

With `O=CC(F)(F)C(F)(F)C(F)(F)F` [compound 42, Perfluorobutyraldehyde] the “pericardial oedemata, Mean” value [1] was 2.22%, the “spinal curvature, Mean” value [1] was 2.22% and the “tail dysplasia, Mean” value [1] was 0.00%. For the same compound, the “Mortality (%)” value (5 µM, exposure through 120 hpf) was 0%.

With `O=C(OC(=O)C(F)(F)C(F)(F)F)C(F)(F)C(F)(F)F` [compound 43, Pentafluoropropanoic anhydride] the “pericardial oedemata, Mean” value [1] was 4.44%, the “spinal curvature, Mean” value [1] was 0.00% and the “tail dysplasia, Mean” value [1] was 4.44%. The “Mortality (%)” value (5 µM, exposure through 120 hpf) was 5.6%.

`COC(F)(F)C(F)(C(F)(F)F)C(F)(F)F` [compound 44, Perfluoroisobutyl methyl ether] was tested, and the “Mortality (%)” value (in vivo) was 1.1, the “pericardial oedemata, Mean” value (in vivo) was 1.11% and the “spinal curvature, Mean” value (in vivo) was 1.11%. For the same compound, the “tail dysplasia, Mean” value (in vivo) was 0.00%.
